Like-named read-outs stand apart in the source and are kept apart here. Where a SMILES comes first, the peptide text is derived from it. The star is where a group is joined. X1 = C[N+](C)(C)CCOP(=O)([O-])Oc1ccc(N*)cc1
Assays:
[1] = molecular target: T1, CRP (CRP-containing human plasma) (Homo sapiens, UniProt P02741); experiment: Inhibition of CRP binding to a plate-coated BSA-APPC construct
T1 construct: from tissue; host or cells: human plasma
T1 sequence (P02741 19-224): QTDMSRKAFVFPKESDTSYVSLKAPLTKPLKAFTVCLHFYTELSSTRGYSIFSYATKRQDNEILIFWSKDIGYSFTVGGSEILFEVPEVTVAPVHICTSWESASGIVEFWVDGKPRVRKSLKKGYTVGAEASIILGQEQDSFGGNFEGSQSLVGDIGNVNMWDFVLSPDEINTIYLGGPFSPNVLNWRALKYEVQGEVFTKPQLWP
Description: A microtiter plate was coated with 100 μg/mL of a BSA-APPC construct, which binds CRP in a calcium-dependent manner, for 1 hour at room temperature (coating buffer: 0.1 M NaHCO3). Subsequently, 4 washes with 400 μl binding buffer (0.1 M Tris, 0.2 M NaCl, 2 mM CaCl2)) and non-specific binding sites were saturated with block solution (1% casein, 0.9% NaCl, 0.001% thiomersal) for 1 h at room temperature or overnight at 2-8° C.
Afterwards, the block solution was removed and the samples were applied in binding buffer. CRP-containing human plasma was diluted to 50 ng/mL CRP and applied either pure or together with different concentrations (0.25-3 mM) of the various inhibitors 1, 4, 5 and APPC and incubated for 1.5 h at room temperature with horizontal shaking (600 rpm). The plate was then washed again as described above.
After washing, 100 μL of a POD-labelled rabbit anti-huCRP antibody (final concentration: 25 ng/mL) in calcium-containing block solution (final concentration of calcium 4 mM) was added and the plate was incubated for 1.5 h at room temperature with shaking.
The plate was then washed again as described above. Development was carried out by adding 100 μl substrate buffer (0.2 M citric acid, 0.01% H2O2, 100 μg/mL TMB). The colour reaction was stopped by adding 50 μL of 1 M H2SO4 and the absorbance was measured at 450 nm. The absorbance at 655 nm (turbidity) was subtracted as background.
For the determination of inhibition, the OD of the CRP with inhibitor was normalised to the OD of the CRP without inhibitor:
The relative OD was then plotted against the concentration of stabilised APPC constructs in the batch. Only APPC was used as a comparative sample. It is clear that constructs 1 and 5 or 3 and APPC show an inhibition curve that is identical within the measurement uncertainty. […] For APPC/3, the corresponding concentration is 0.7±0.06 mmol/L. Thus, all stabilised APPC constructs show a good inhibition capacity.

huCRP [2] = molecular target: T2, huCRP (Homo sapiens, UniProt P02741); experiment: ELISA: binding of CRP to solid phase-fixed biotin-D-Glu(APPC)-NH2 on streptavidin-coated microtiter plates; conditions: for Optical Density (OD): mean of duplicates
T2 sequence (P02741 19-224): T1 sequence (P02741 19-224)
Description: Streptavidin-coated microtiter plates were incubated with a solution containing biotin-D-Glu(APPC)—NH2) (2) and then washed with phosphate buffer (PBS). The reactive parts of the MTP surface were then blocked with BSA solution (a standard procedure). CRP was then added in a concentration range of 31-500 ng/ml and incubated (see table below). After renewed washing, the bound CRP was detected using a murine monoclonal antibody (DH7) against CRP and a secondary, POD-conjugated anti-mouse antibody, followed by substrate development

huCRP [3] = molecular target: T2, huCRP; experiment: ELISA: binding of free CRP and free biotin-D-Glu(APPC)-NH2 in solution, complex captured on streptavidin plates; conditions: for Optical Density (OD): mean of duplicates
Description: CRP and compound 2 were incubated in a reaction vessel for 1 h at room temperature for complexation. The final concentrations were 10 μg/ml CRP (MW approx. 125 KD) and 2 μg/ml compound 2 (MW approx. 1 KD). The solution was then added to streptavidin-coated microtiter plates (MTP) at the dilution levels indicated in Tab. 2 at […] each and incubated with a block solution (Roche) for 30 min at room temperature. The MTPs were then washed 3 times. Using the in house monoclonal antibody “DH7” specific for huCRP and a peroxidase-conjugated secondary antibody (anti-mouse) as well as the substrate TMB, the huCRP previously bound to compound 2 was detected.

[4] = 50 ng/mL CRP from human plasma, inhibitor 0.25-3 mM, BSA-APPC coated plate, read-out: 50% inhibitor concentration (IC50)

## C[N+](C)(C)CCOP(=O)([O-])Oc1ccc(NC(=O)CC[C@@H](N)C(N)=O)cc1 [Compound 1, D-Glu(APPC)—NH2]
[1]; [4]
  IC50: 1600 ± 100 µM

## C[N+](C)(C)CCOP(=O)([O-])Oc1ccc(NC(=O)CC[C@@H](NC(=O)CCCC[C@@H]2SC[C@@H]3NC(=O)N[C@@H]32)C(N)=O)cc1 [Compound 2, Biotin-D-Glu(APPC)—NH2]
huCRP [2]; CRP 31 ng/ml
  Optical Density (OD): 1.061
huCRP [2]; CRP 62.5 ng/ml
  Optical Density (OD): 1.512
huCRP [2]; CRP 125 ng/ml
  Optical Density (OD): 2.081
huCRP [2]; CRP 250 ng/ml
  Optical Density (OD): 2.627
huCRP [2]; CRP 500 ng/ml
  Optical Density (OD): 3.242
huCRP [2]; solid phase-fixed compound
  Binding to CRP (CRP binding curve, FIG. 1): binds to CRP
huCRP [3]; complex dilution 1:20, 10 μg/ml CRP + 2 μg/ml compound 2
  Optical Density (OD): 2.685
huCRP [3]; complex dilution 1:40
  Optical Density (OD): 2.219
huCRP [3]; complex dilution 1:80
  Optical Density (OD): 1.801
huCRP [3]; complex dilution 1:160
  Optical Density (OD): 1.242
huCRP [3]; complex dilution 1:320
  Optical Density (OD): 0.875
huCRP [3]; complex dilution 1:640
  Optical Density (OD): 0.548
huCRP [3]; complex dilution 1:1280
  Optical Density (OD): 0.381
huCRP [3]; free CRP and free compound, 1 h room temperature
  Binding of CRP in solution (dilution series, FIG. 2): binds CRP in solution

## C[N+](C)(C)CCOP(=O)([O-])Oc1ccc(N)cc1 [APPC, 4-aminophenylphosphocholine, reference compound]
[1]; [4]
  IC50: 700 ± 60 µM

## CC(=O)N1CCC[C@H]1C(=O)N[C@@H](C)C(=O)N[C@@H](CO)C(=O)N[C@@H](CCC(=O)Nc1ccc(OP(=O)([O-])OCC[N+](C)(C)C)cc1)C(=O)N1CCC[C@H]1C(=O)N[C@@H](C)C(=O)N[C@@H](CO)C(N)=O [Compound 5] (Ac-PASE(X1)PAS-NH2)
[1]
  IC50: 1600 ± 100 µM

— patent publication US20240400589A1, “4-AMINOPHENYLPHOSPHO[…] FOR BLOCKING C-REACTIVE PROTEIN” (Pentracor GmbH, priority 2021, published 2024)
